Measured values: ChEMBL document CHEMBL5104144, “Exploring the roles of the Cdc2-like kinases in cancers” (Bioorg Med Chem, 2022)
Values belong to the compound of their own block, whether it stands above or below them.

What was measured:
[1] = target: T1, Dual specificity protein kinase CLK4 (Homo sapiens, UniProt Q9HAZ1); test: Inhibition of CLK4 (unknown origin) assessed as reduction in SRSF10 phosphorylation
[2] = target: T2, Dual specificity protein kinase CLK1 (Homo sapiens, UniProt P49759); test: Inhibition of CLK1 (unknown origin)
[3] = target: T2, Dual specificity protein kinase CLK1; test: Inhibition of CLK1 (unknown origin) assessed as reduction in SRSF10 phosphorylation
[4] = target: T1, Dual specificity protein kinase CLK4; test: Inhibition of CLK4 (unknown origin)
[5] = target: T1, Dual specificity protein kinase CLK4; test: Inhibition of CLK4 (unknown origin) assessed as reduction in SRSF1 phosphorylation
[6] = target: T1, Dual specificity protein kinase CLK4; test: Inhibition of human CLK4 (146 to 480 residues) expressed in Escherichia coli BL21 (DE3) Turner using MBP as substrate incubated for 60 mins in presence of [gamma-32P]ATP by radiometric kinase assay
[7] = Inhibition of GST-tagged recombinant mouse CLK2 expressed in Escherichia coli using RSPSYGRSRSRSRSRSRSRSRSNSRSRSY as substrate in presence of [gamma-32P]ATP by a liquid scintillation counter method
[8] = Inhibition of GST-tagged recombinant mouse CLK1/STY expressed in Escherichia coli using RSPSYGRSRSRSRSRSRSRSRSNSRSRSY as substrate in presence of [gamma-32P]ATP by a liquid scintillation counter method

T1 sequence (Q9HAZ1 whole entry): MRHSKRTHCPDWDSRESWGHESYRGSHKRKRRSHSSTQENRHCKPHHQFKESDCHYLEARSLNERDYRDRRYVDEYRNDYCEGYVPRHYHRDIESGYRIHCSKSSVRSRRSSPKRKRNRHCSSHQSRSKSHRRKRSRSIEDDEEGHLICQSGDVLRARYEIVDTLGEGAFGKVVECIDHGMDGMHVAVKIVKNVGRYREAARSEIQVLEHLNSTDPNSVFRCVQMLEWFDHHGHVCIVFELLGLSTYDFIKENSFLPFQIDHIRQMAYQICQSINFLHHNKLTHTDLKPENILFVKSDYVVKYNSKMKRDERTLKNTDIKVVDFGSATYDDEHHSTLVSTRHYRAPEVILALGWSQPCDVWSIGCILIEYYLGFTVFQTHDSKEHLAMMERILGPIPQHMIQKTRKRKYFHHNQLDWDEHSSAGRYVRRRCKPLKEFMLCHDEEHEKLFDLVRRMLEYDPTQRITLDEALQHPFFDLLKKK
T2 sequence (P49759 whole entry): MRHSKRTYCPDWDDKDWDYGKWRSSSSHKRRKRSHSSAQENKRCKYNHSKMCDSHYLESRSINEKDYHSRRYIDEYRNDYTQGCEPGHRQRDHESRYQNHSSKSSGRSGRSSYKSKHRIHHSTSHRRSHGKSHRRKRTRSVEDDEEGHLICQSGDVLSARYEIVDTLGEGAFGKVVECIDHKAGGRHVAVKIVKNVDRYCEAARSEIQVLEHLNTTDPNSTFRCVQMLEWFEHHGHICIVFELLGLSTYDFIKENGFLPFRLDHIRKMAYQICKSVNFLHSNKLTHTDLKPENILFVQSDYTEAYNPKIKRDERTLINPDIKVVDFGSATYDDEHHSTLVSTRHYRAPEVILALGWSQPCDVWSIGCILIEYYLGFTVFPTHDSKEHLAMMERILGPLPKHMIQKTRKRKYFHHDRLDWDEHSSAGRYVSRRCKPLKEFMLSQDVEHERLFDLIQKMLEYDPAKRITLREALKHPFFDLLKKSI

IC50 [1]: 0.014 µM
IC50 [2]: 0.044 µM
IC50 [3]: 0.044 µM
IC50 [4]: 0.014 µM
IC50 [5]: 0.024 µM
Structure (SMILES): O=C(Nc1ccc2[nH]cnc2c1)c1csc(Nc2ccccc2)n1

IC50 [6]: 0.011 µM
Structure (SMILES): O=C(O)c1ccc2c(c1)nc(Nc1cccc(Cl)c1)c1ccncc12 [SILMITASERTIB]

Structure (SMILES): CCN1/C(=C/C(C)=O)Sc2ccc(OC)cc21
IC50 [7]: 0.2 µM
IC50 [8]: 0.02 µM
